Experimental data: patent US20090082337A1, “Compositions Comprising Quinolone and Methods for Treating or Controlling Infections” (priority 2007, published 2009)
≈ marks a conversion by molar mass, not a printed value.

Assays:
Assay type in all cases: cell-based
[1] = tested on: Staphylococcus epidermidis (ATCC 12228); test: In vitro anti-bacterial activity (MIC90), Gram-positive bacteria; details: ATCC12228, Gram-positive reference strain
Protocol: (§1) In yet another aspect, said another quinolone has a MIC90 value for a Gram-negative bacterium that is lower than that of the fluoroquinolone having Formula I, II, III, IV, V, VI, VII, or VIII for the same bacterium, said fluoroquinolone being included in the composition. MIC90 is the minimum concentration of the active compound required to inhibit ninety percent of the growth of a specified pathogen, in μg/ml. Anti-bacterial activity of the compound having Formula […] was tested against several Gram-positive reference bacteria strains and compared to the anti-bacterial activity of three commercially available antibiotics (nadifloxacin, ofloxacin, and sparfloxacin).

[2] = tested on: Streptococcus faecalis (ATCC 29212); test: as above; details: Enterococcus faecalis, ATCC29212, Gram-positive reference strain
Protocol: as §1

[3] = tested on: Sarcina lutea (ATCC 9341); test: as above; details: Micrococcus luteus, ATCC9341, Gram-positive reference strain
Protocol: as §1

[4] = tested on: Streptococcus pneniae (IID 554); test: as above; details: IID554, Gram-positive reference strain
Protocol: as §1

[5] = tested on: Streptococcus pyogenes (IID 698); test: as above; details: IID698, Gram-positive reference strain
Protocol: as §1

[6] = tested on: Bacillis subtilis (ATCC 6633); test: as above; details: Gram-positive reference strain
Protocol: as §1

[7] = tested on: Streptococcus pyogenes (Cook); test: as above; details: Gram-positive reference strain
Protocol: as §1

[8] = tested on: Streptococcus pneumoniae (IID 553); test: as above; details: IID553, Gram-positive reference strain
Protocol: as §1

[9] = tested on: Staphylococcus aureus (FDA 209P); test: as above; details: FDA209P, Gram-positive reference strain
Protocol: as §1

[10] = tested on: Streptococcus faecalis (IFO 12964); test: as above; details: Enterococcus faecalis, IFO12964, Gram-positive reference strain
Protocol: as §1

[11] = tested on: Staphylococcus aureus (ATCC 25933); test: as above; details: ATCC25933, Gram-positive reference strain
Protocol: as §1

[12] = tested on: Staphylococcus aureus (Smith); test: as above; details: Gram-positive reference strain
Protocol: as §1

[13] = tested on: Propionibacterium acnes (ATCC 11828); test: In vitro anti-bacterial activity (MIC90), anaerobic bacteria; details: Cutibacterium acnes, ATCC11828, anaerobic reference bacteria
[14] = tested on: Propionibacterium acnes (ATCC 6919); test: as above; details: Cutibacterium acnes, ATCC6919, anaerobic reference bacteria
[15] = tested on: Clostridium perfringens (KZ 210); test: microbe, parasite or virus in culture
[16] = tested on: Staphylococcus aureus (No. 395); test: In vitro anti-bacterial activity (MIC90), methicillin-resistant Staphylococcus aureus isolates; details: methicillin-resistant Staphylococcus aureus (No. 395)
Protocol: (§2) In yet another aspect, said another quinolone has a MIC90 value for a Gram-negative bacterium that is lower than that of the fluoroquinolone having Formula I, II, III, IV, V, VI, VII, or VIII for the same bacterium, said fluoroquinolone being included in the composition. MIC90 is the minimum concentration of the active compound required to inhibit ninety percent of the growth of a specified pathogen, in μg/ml.
Anti-bacterial activity of the compound having Formula IV was tested against some methicillin-resistant Staphylococcus aureus bacteria strains and compared to the anti-bacterial activity of three commercially available antibiotics (nadifloxacin, ofloxacin, and sparfloxacin).

[17] = tested on: Peptostreptococcus micros (GIFU 7824); test: In vitro anti-bacterial activity (MIC90), anaerobic bacteria; details: Parvimonas micra, anaerobic reference bacteria
[18] = tested on: Salmonella typhimurium (TD); test: In vitro anti-bacterial activity (MIC90), Gram-negative bacteria; details: Salmonella enterica, Gram-negative reference strain
Protocol: Anti-bacterial activity of the compound having Formula IV was tested against several Gram-negative reference bacteria strains and compared to the anti-bacterial activity of three commercially available antibiotics (nadifloxacin, ofloxacin, and sparfloxacin).

[19] = tested on: Peptostreptococcus magnum (GAI 0664); test: In vitro anti-bacterial activity (MIC90), anaerobic bacteria; details: anaerobic reference bacteria
[20] = tested on: Shigella flexneri (2b); test: In vitro anti-bacterial activity (MIC90), Gram-negative bacteria; details: Gram-negative reference strain
Protocol: as §2
(§3) Anti-bacterial activity of the compound having Formula IV was tested against several Gram-negative reference bacteria strains and compared to the anti-bacterial activity of three commercially available antibiotics (nadifloxacin, ofloxacin, and sparfloxacin). The results are shown in Table 2 as MIC90 values (minimum concentration of the active compound required to inhibit ninety percent of the growth of a specified pathogen, in μg/ml).

[21] = tested on: Enterobacter aerogenes (IFO 13534); test: as above; details: Klebsiella aerogenes, IFO13534, Gram-negative reference strain
Protocol: as §2, §3

[22] = tested on: Escherichia coli (O-1); test: as above; details: Gram-negative reference strain
Protocol: as §2, §3

[23] = tested on: Pseudomonas aeruginosa (IFO 13736); test: as above; details: IFO13736, Gram-negative reference strain
Protocol: as §2, §3

[24] = tested on: Serratia marcenscens (NHL); test: as above; details: Gram-negative reference strain
Protocol: as §2, §3

[25] = tested on: Proteus mirabilis (IFO 13300); test: as above; details: IFO13300, Gram-negative reference strain
Protocol: as §2, §3

[26] = tested on: Proteus rettgeri; test: as above; details: Providencia rettgeri, Gram-negative reference strain
Protocol: as §2, §3

[27] = tested on: Acinetobacter calcoaceticus (IFO 12552); test: as above; details: IFO12552, Gram-negative reference strain
Protocol: as §2, §3

[28] = tested on: Klebsiella pneumoniae (IFO 13541); test: as above; details: IFO13541, Gram-negative reference strain
Protocol: as §2, §3

[29] = tested on: Pseudomonas aeruginosa (ATCC 27853); test: as above; details: ATCC27853, Gram-negative reference strain
Protocol: as §2, §3

[30] = tested on: Propionibacterium acnes (GAI 5419); test: In vitro anti-bacterial activity (MIC90), anaerobic bacteria; details: Cutibacterium acnes, anaerobic reference bacteria

| Structure (SMILES) | MIC90 [1] [µg/mL] | MIC90 [2] [µg/mL] | MIC90 [3] [µg/mL] | MIC90 [4] [µg/mL] | MIC90 [5] [µg/mL] | MIC90 [6] [µg/mL] | MIC90 [7] [µg/mL] | MIC90 [8] [µg/mL] | MIC90 [9] [µg/mL] | MIC90 [10] [µg/mL] | MIC90 [11] [µg/mL] | MIC90 [12] [µg/mL] | MIC90 [13] [µg/mL] | MIC90 [14] [µg/mL] | MIC90 [15] [µg/mL] | MIC90 [16] [µg/mL] | MIC90 [17] [µg/mL] | MIC90 [18] [µg/mL] | MIC90 [19] [µg/mL] | MIC90 [20] [µg/mL] | other results |
| --- | --- | --- | --- | --- | --- | --- | --- | --- | --- | --- | --- | --- | --- | --- | --- | --- | --- | --- | --- | --- | --- |
| C[C@@H]1CN(c2c(F)c(N)c3c(=O)c(C(=O)O)cn(C4CC4)c3c2F)C[C@H](C)N1 [Sparfloxacin, sparfloxacin] | 0.2 (≈ 0.51 µM) | 0.39 (≈ 0.994 µM) | 1.56 (≈ 3.98 µM) | 0.39 (≈ 0.994 µM) | 0.2 (≈ 0.51 µM) | 0.024 (≈ 0.0612 µM) | 0.39 (≈ 0.994 µM) | 0.39 (≈ 0.994 µM) | 0.024 (≈ 0.0612 µM) | 0.78 (≈ 1.99 µM) | 0.1 (≈ 0.255 µM) | 0.05 (≈ 0.127 µM) | 0.78 (≈ 1.99 µM) | 0.39 (≈ 0.994 µM) | 0.39 (≈ 0.994 µM) | 0.05 (≈ 0.127 µM) | 0.78 (≈ 1.99 µM) | 0.012 (≈ 0.0306 µM) | 0.1 (≈ 0.255 µM) | 0.006 (≈ 0.0153 µM) | MIC90 [21]: 0.1 µg/mL (≈ 0.255 µM); MIC90 [22]: 0.012 µg/mL (≈ 0.0306 µM); MIC90 [23]: 0.78 µg/mL (≈ 1.99 µM); MIC90 [24]: 0.2 µg/mL (≈ 0.51 µM); MIC90 [25]: 0.1 µg/mL (≈ 0.255 µM); MIC90 [26]: 0.2 µg/mL (≈ 0.51 µM); MIC90 [27]: 0.024 µg/mL (≈ 0.0612 µM); MIC90 [28]: 0.012 µg/mL (≈ 0.0306 µM); MIC90 [29]: 0.78 µg/mL (≈ 1.99 µM); MIC90 [30]: 0.39 µg/mL (≈ 0.994 µM) |
| CC1CCc2c(N3CCC(O)CC3)c(F)cc3c(=O)c(C(=O)O)cn1c23 (stereo not drawn) [Nadifloxacin, nadifloxacin] | 0.1 (≈ 0.277 µM) | 0.78 (≈ 2.16 µM) | 0.39 (≈ 1.08 µM) | 0.78 (≈ 2.16 µM) | 0.1 (≈ 0.277 µM) | 0.006 (≈ 0.0166 µM) | 0.78 (≈ 2.16 µM) | 0.78 (≈ 2.16 µM) | 0.024 (≈ 0.0666 µM) | 0.78 (≈ 2.16 µM) | 0.05 (≈ 0.139 µM) | 0.024 (≈ 0.0666 µM) | 0.78 (≈ 2.16 µM) | 0.2 (≈ 0.555 µM) | 0.2 (≈ 0.555 µM) | 0.024 (≈ 0.0666 µM) | 0.39 (≈ 1.08 µM) | 0.2 (≈ 0.555 µM) | 0.2 (≈ 0.555 µM) | 0.006 (≈ 0.0166 µM) | MIC90 [21]: 1.56 µg/mL (≈ 4.33 µM); MIC90 [22]: 0.2 µg/mL (≈ 0.555 µM); MIC90 [23]: 3.13 µg/mL (≈ 8.69 µM); MIC90 [24]: 1.56 µg/mL (≈ 4.33 µM); MIC90 [25]: 0.1 µg/mL (≈ 0.277 µM); MIC90 [26]: 0.39 µg/mL (≈ 1.08 µM); MIC90 [27]: 0.78 µg/mL (≈ 2.16 µM); MIC90 [28]: 0.1 µg/mL (≈ 0.277 µM); MIC90 [29]: 6.25 µg/mL (≈ 17.3 µM); MIC90 [30]: 0.2 µg/mL (≈ 0.555 µM) |
| CC1COc2c(N3CCN(C)CC3)c(F)cc3c(=O)c(C(=O)O)cn1c23 (stereo not drawn) [Ofloxacin, ofloxacin] | 0.78 (≈ 2.16 µM) | 1.56 (≈ 4.32 µM) | 3.13 (≈ 8.66 µM) | 1.56 (≈ 4.32 µM) | 0.39 (≈ 1.08 µM) | 0.05 (≈ 0.138 µM) | 0.78 (≈ 2.16 µM) | 1.56 (≈ 4.32 µM) | 0.2 (≈ 0.553 µM) | 1.56 (≈ 4.32 µM) | 0.39 (≈ 1.08 µM) | 0.2 (≈ 0.553 µM) | 1.56 (≈ 4.32 µM) | 0.78 (≈ 2.16 µM) | 0.78 (≈ 2.16 µM) | 0.2 (≈ 0.553 µM) | 0.78 (≈ 2.16 µM) | 0.05 (≈ 0.138 µM) | 0.39 (≈ 1.08 µM) | 0.006 (≈ 0.0166 µM) | MIC90 [21]: 0.2 µg/mL (≈ 0.553 µM); MIC90 [22]: 0.05 µg/mL (≈ 0.138 µM); MIC90 [23]: 1.56 µg/mL (≈ 4.32 µM); MIC90 [24]: 0.1 µg/mL (≈ 0.277 µM); MIC90 [25]: 0.05 µg/mL (≈ 0.138 µM); MIC90 [26]: 0.2 µg/mL (≈ 0.553 µM); MIC90 [27]: 0.39 µg/mL (≈ 1.08 µM); MIC90 [28]: 0.024 µg/mL (≈ 0.0664 µM); MIC90 [29]: 3.13 µg/mL (≈ 8.66 µM); MIC90 [30]: 0.78 µg/mL (≈ 2.16 µM) |
| N[C@@H]1CCCCN(c2c(F)cc3c(=O)c(C(=O)O)cn(C4CC4)c3c2Cl)C1 [Compound Having Formula IV] | 0.05 | 0.2 | 0.1 | 0.2 | 0.1 | 0.012 | 0.1 | 0.1 | 0.012 | 0.1 | 0.05 | 0.006 | 0.39 | 0.2 | 0.2 | 0.006 | 0.2 | 0.05 | 0.05 | 0.006 | MIC90 [21]: 0.39 µg/mL; MIC90 [22]: 0.1 µg/mL; MIC90 [23]: 1.56 µg/mL; MIC90 [24]: 0.2 µg/mL; MIC90 [25]: 0.1 µg/mL; MIC90 [26]: 0.39 µg/mL; MIC90 [27]: 0.39 µg/mL; MIC90 [28]: 0.024 µg/mL; MIC90 [29]: 1.56 µg/mL; MIC90 [30]: 0.2 µg/mL |
